Read-outs that look alike come from different tables or passages of the source.
Tests used:
[1] = system: THP-1 cells expressing G12D (NRAS G12D); assay: Inhibition of NRAS G12D-mediated phosphorylation of ERK (AlphaLISA p-ERK1/2) in THP-1 cells; assay type: cell-based; conditions: 2 hours incubation, HBSS with 0% or 10% FBS, p-ERK1/2 (Thr202/Tyr204) AlphaLISA, read-out: pERK THP-1 IC50
How it was run: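 THP-1 cells expressing NRAS G12D, seeded in HBSS with 0% or 10% FBS, were exposed to test compound (1% DMSO final) for 2 h. p-ERK1/2 (Thr202/Tyr204) read by AlphaLISA SureFire Ultra. IC50 from curves normalized to no-inhibitor (100%) and 1 μM trametinib (0%) controls.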

[2] = molecular target: NRAS G12D C118S (Homo sapiens (Human), UniProt P01111, C118S/G12D); assay: NRas G12D Surface Plasmon Resonance (SPR) binding assay; conditions: Avi-tagged biotinylated NRAS G12D C118S on streptavidin chip, 25° C., 1:1 kinetic or steady-state fit
Chain of NRAS G12D C118S (P01111 whole entry G12D/C118S): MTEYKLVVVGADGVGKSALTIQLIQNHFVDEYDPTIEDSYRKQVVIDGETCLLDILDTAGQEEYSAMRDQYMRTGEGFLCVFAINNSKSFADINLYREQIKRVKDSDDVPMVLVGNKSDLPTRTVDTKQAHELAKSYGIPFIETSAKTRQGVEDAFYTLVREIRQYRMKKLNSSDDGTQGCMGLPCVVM
Method: NRas G12D Surface Plasmon Resonance (SPR) Binding Assay
This Example illustrates that exemplary compounds and salts thereof described herein bind to NRAS G12D as measured by surface plasmon resonance (SPR).
Two liters of 1.03× running buffer (1.03×HBS-P+pH 7.4, containing 0.0103 M HEPES, 0.1545 M NaCl, 0.0515% v/v Surfactant P20 (Cytiva®, BR100671); 5.15 mM MgCl2 (Invitrogen, AM9530G); 0.515 mM TCEP, pH 8.0 (GoldBio®, TCEP25)) was prepared and filter sterilized using a 0.22 μm filter. A 1-L volumetric flask was filled partway with this buffer. A 30-mL volumetric flask was used to measure 30 mL of 100% DMSO (Sigma Aldrich®, 41639-100ML) which was added to the 1-L flask. The solution in the 1-L flask was brought up to 1 L with 1.03× buffer, resulting in a 1.0× assay running buffer containing 1.0×HBS-P+, 5 mM MgCl2, […], and 3% DMSO. Remaining 1.03× buffer was used for preparation of samples and immobilization running buffer.
Samples were prepared in a standard conical-bottomed 384-well microplate by adding 2 μL 10 mM DMSO cpd stock to each well, followed by 8 μL DMSO. A control compound was selected based off of its relatively “fast” kinetics that could be fitted by 1:1 kinetic fitting, as well as by steady-state fitting. Control wells for periodic injection to assess protein activity throughout the assay were also assembled, by diluting 10 mM compound 1:30 in DMSO, then adding 20 μL to the appropriate wells, such that the final concentration of compound would be 10 μM, and the final concentration of DMSO would be 3%. A Biomek™ FXP Laboratory Automation Workstation was used to stamp 20 μL DMSO into all sample wells—minus the control wells—according to the plate map, and then serially dilute 1:3 by mixing and aspirating 10 μL, delivering into the 20 μL of DMSO in the next well, resulting in 10-point serial dilution curves. A Biotek™ Multiflo EL406 Washer Dispenser was used to deliver 80 μL of 1.03× buffer to the compound plate. The plate was mixed 10× by FX, then a final dilution was performed by stamping 18 μL from the compound plate into a 384-well deep-well plate that had also been previously filled with 102 μL 1.03× buffer via the Multiflo. The solution in the deep-well plate was mixed 10× by FX, then sealed with a 384-well microplate foil from Cytiva® (Cytiva® BR100577) and placed on an orbital shaker for 30 minutes at 1000 RPM to ensure complete mixing of the DMSO solution in the buffer. A solvent correction curve was also prepared by making a 4% DMSO solution in 1.03× buffer and diluting in 1.03× buffer such that there were eight solutions of decreasing DMSO concentrations resulting in a high DMSO concentration of 4% and a low concentration of 2% DMSO.
Immobilization running buffer was prepared in a 200-mL volume by diluting 1.03× running buffer prepared above to 1.0×. A Cytiva® Streptavidin chip (Cytiva®, 29104992) was docked into a Biacore™ S200 instrument, and the instrument was then primed three times into the immobilization running buffer. A protein stock of Avi-tagged NRAS G12D C118S was prepared in-house and biotinylated using the Bulk BirA: BirA biotin-protein ligase bulk reaction kit from Avidity (Avidity®, Bulk BirA). Upon completion of the biotinylation reaction, Amicon® ultra 0.5-mL Centrifugal Filters with a MWCO of 3 k Da (Millipore® UFC500396) were used to reduce the free biotin concentration below 0.1 μM in the protein sample over the course of eight desalting cycles, according to the manufacturer's protocol. Resulting protein concentration was not measured directly as an accurate protein concentration is not required for immobilizing protein on the chip surface; however, a theoretical yield of ≤1.5 mg/mL was estimated based off of retained volumes during the desalting process. Reagents for immobilization were prepared as instructed in the Biacore™ 5200 Control Software Immobilization Wizard, including solutions of 1 M NaCl in 50 mM NaOH, and 1 M NaCl in 50 mM NaOH and 50% isopropyl alcohol. […]

`C#Cc1c(F)ccc2cc(O)cc(-c3ncc4c([C@H]5[C@@H]6CNC[C@@H]65)cn(C5CC5)c4c3F)c12` [Example 5, 4-(3-((1R,5S,6s)-3-azabicyclo[3.1.0]hexan-6-yl)-1-cyclopropyl-7-fluoro-1H-pyrrolo[3,2-c]pyridin-6-yl)-5-ethynyl-6-fluoronaphthalen-2-ol] was tested, and the IC50 ([1]; Homo sapiens, THP-1, 2 h) was 0.269 µM and the Kd [2] was 0.0101 µM.
With `C#Cc1c(F)ccc2cc(O)cc(-c3ncc4c(N5CC6CCC(C5)N6)nn(CC)c4c3F)c12` [Example 8, 4-(3-(3,8-diazabicyclo[3.2.1]octan-3-yl)-1-ethyl-7-fluoro-1H-pyrazolo[4,3-c]pyridin-6-yl)-5-ethynyl-6-fluoronaphthalen-2-ol] the IC50 ([1]; Homo sapiens, THP-1, 2 h) was 11.1 µM and the Kd [2] was 1.92 µM.
For `C#Cc1c(F)ccc2cc(O)cc(-c3ncc4c(N5CC6CCC(C5)N6)nn(C)c4c3F)c12` [Example 13, 4-(3-(3,8-diazabicyclo[3.2.1]octan-3-yl)-7-fluoro-1-methyl-1H-pyrazolo[4,3-c]pyridin-6-yl)-5-ethynyl-6-fluoronaphthalen-2-ol], the IC50 ([1]; Homo sapiens, THP-1, 2 h) was 6.74 µM and the Kd [2] was 0.891 µM.
`C#Cc1c(F)ccc2cc(O)cc(-c3ncc4c([C@H]5[C@@H]6CNC[C@@H]65)c(C)n(C)c4c3F)c12` [Example 21, 4-(3-((1R,5S,6s)-3-azabicyclo[3.1.0]hexan-6-yl)-7-fluoro-1,2-dimethyl-1H-pyrrolo[3,2-c]pyridin-6-yl)-5-ethynyl-6-fluoronaphthalen-2-ol] gave an IC50 ([1]; Homo sapiens, THP-1, 2 h) of 13 µM and a Kd [2] of 1.84 µM.
`C#Cc1c(F)ccc2cc(O)cc(-c3ncc4c([C@H]5[C@@H]6CNC[C@@H]65)nn(C(C)C)c4c3F)c12` [Example 24, 4-(3-((1R,5S,6r)-3-azabicyclo[3.1.0]hexan-6-yl)-7-fluoro-1-isopropyl-1H-pyrazolo[4,3-c]pyridin-6-yl)-5-ethynyl-6-fluoronaphthalen-2-ol] gave an IC50 ([1]; Homo sapiens, THP-1, 2 h) of 10.7 µM and a Kd [2] of 0.824 µM.
`C#Cc1c(F)ccc2cc(O)cc(-c3ncc4c(N5CC6CCC5CN6)nn(C)c4c3F)c12` (centres unmarked) [Example 26, 4-(3-(2,5-diazabicyclo[2.2.2]octan-2-yl)-7-fluoro-1-methyl-1H-pyrazolo[4,3-c]pyridin-6-yl)-5-ethynyl-6-fluoronaphthalen-2-ol] was tested, and the IC50 ([1]; Homo sapiens, THP-1, 2 h) was 2.07 µM and the Kd [2] was 0.0738 µM.
`C#Cc1c(F)ccc2cc(O)cc(-c3ccc4c([C@H]5[C@@H]6CNC[C@@H]65)nn(C)c4c3F)c12` [Example 27, 4-(3-((1R,5S,6r)-3-azabicyclo[3.1.0]hexan-6-yl)-7-fluoro-1-methyl-1H-indazol-6-yl)-5-ethynyl-6-fluoronaphthalen-2-ol] was tested, and the IC50 ([1]; Homo sapiens, THP-1, 2 h) was 9.56 µM and the Kd [2] was 3.18 µM.
`C#Cc1c(F)ccc2cc(O)cc(-c3ncc4c(N5CC6CC5CN6)nn(C)c4c3F)c12` (centres unmarked) [Example 28, 4-(3-(2,5-diazabicyclo[2.2.1]heptan-2-yl)-7-fluoro-1-methyl-1H-pyrazolo[4,3-c]pyridin-6-yl)-5-ethynyl-6-fluoronaphthalen-2-ol] showed an IC50 ([1]; Homo sapiens, THP-1, 2 h) of 11.9 µM and a Kd [2] of 1.1 µM.
For `C#Cc1c(F)ccc2cc(O)cc(-c3c(F)cc4c([C@H]5[C@@H]6CNC[C@@H]65)cn(C)c4c3F)c12` [Example 29, 4-(3-((1R,5S,6s)-3-azabicyclo[3.1.0]hexan-6-yl)-5,7-difluoro-1-methyl-1H-indol-6-yl)-5-ethynyl-6-fluoronaphthalen-2-ol], the IC50 ([1]; Homo sapiens, THP-1, 2 h) was 3.1 µM and the Kd [2] was 0.965 µM.
Compound `C#Cc1c(F)ccc2cc(O)cc(-c3ncc4c(N5C[C@@H]6CC[C@H]5CN6)nn(C)c4c3F)c12` [Example 30, 4-(3-((1S,4S)-2,5-diazabicyclo[2.2.2]octan-2-yl)-7-fluoro-1-methyl-1H-pyrazolo[4,3-c]pyridin-6-yl)-5-ethynyl-6-fluoronaphthalen-2-ol] has an IC50 ([1]; Homo sapiens, THP-1, 2 h) of 1.19 µM and a Kd [2] of 0.0519 µM.
`C#Cc1c(F)ccc2cc(O)cc(-c3ncc4c(N5CC6CCCC(C5)N6)nn(C)c4c3F)c12` [Example 31, 4-[3-(3,9-diazabicyclo[3.3.1]nonan-3-yl)-7-fluoro-1-methyl-pyrazolo[4,3-c]pyridin-6-yl]-5-ethynyl-6-fluoro-naphthalen-2-ol] was tested, and the IC50 ([1]; Homo sapiens, THP-1, 2 h) was 18.1 µM and the Kd [2] was 3.43 µM.
Compound `C#Cc1c(F)ccc2cc(O)cc(-c3ncc4c(N5CC(N(C)C)C5)nn(C)c4c3F)c12` [Example 33, 4-[3-[3-(dimethylamino)azetidin-1-yl]-7-fluoro-1-methyl-pyrazolo[4,3-c]pyridin-6-yl]-5-ethynyl-6-fluoro-naphthalen-2-ol] has an IC50 ([1]; Homo sapiens, THP-1, 2 h) of over 50 µM and a Kd [2] of 8.75 µM.
Compound `C#Cc1c(F)ccc2cc(O)cc(-c3ncc4c(N5CC6CC(C5)N6)nn(C)c4c3F)c12` [Example 34, 4-[3-(3,6-diazabicyclo[3.1.1]heptan-3-yl)-7-fluoro-1-methyl-pyrazolo[4,3-c]pyridin-6-yl]-5-ethynyl-6-fluoro-naphthalen-2-ol] has an IC50 ([1]; Homo sapiens, THP-1, 2 h) of 5.98 µM and a Kd [2] of 0.613 µM.
`C#Cc1c(F)ccc2cc(O)cc(-c3ncc4c(N5CC6CCCC5CN6)nn(C)c4c3F)c12` (centres unmarked) [Example 36, 4-[3-(6,8-diazabicyclo[3.2.2]nonan-6-yl)-7-fluoro-1-methyl-pyrazolo[4,3-c]pyridin-6-yl]-5-ethynyl-6-fluoro-naphthalen-2-ol] showed an IC50 ([1]; Homo sapiens, THP-1, 2 h) of 12.8 µM and a Kd [2] of 4.03 µM.
`C#Cc1c(F)ccc2cc(O)cc(-c3ncc4c(c(C)cn4C4=CC5CCC4CN5)c3F)c12` (centres unmarked) [Example 38, 4-[1-(2-azabicyclo[2.2.2]oct-5-en-5-yl)-4-fluoro-3-methyl-pyrrolo[2,3-c]pyridin-5-yl]-5-ethynyl-6-fluoro-naphthalen-2-ol] showed an IC50 ([1]; Homo sapiens, THP-1, 2 h) of 18.3 µM and a Kd [2] of 3.99 µM.
In the case of `C#Cc1c(F)ccc2cc(O)cc(-c3ncc4c(c(C)cn4C4CC5CCC4CN5)c3F)c12` (centres unmarked) [Example 39, 4-[1-(2-azabicyclo[2.2.2]octan-5-yl)-4-fluoro-3-methyl-pyrrolo[2,3-c]pyridin-5-yl]-5-ethynyl-6-fluoro-naphthalen-2-ol], the IC50 ([1]; Homo sapiens, THP-1, 2 h) is reported as 4.82 µM and the Kd [2] is reported as 0.435 µM.
Compound `C#Cc1c(F)ccc2cc(O)cc(-c3ncc4c(c(C)cn4C4[C@H]5CNC[C@@H]45)c3F)c12` (stereo partly drawn) [Example 40, 4-[1-[(1R,5S)-3-azabicyclo[3.1.0]hexan-6-yl]-4-fluoro-3-methyl-pyrrolo[2,3-c]pyridin-5-yl]-5-ethynyl-6-fluoro-naphthalen-2-ol] has an IC50 ([1]; Homo sapiens, THP-1, 2 h) of over 10 µM and a Kd [2] of 1.13 µM.
Compound `C#Cc1c(F)ccc2cc(O)cc(-c3ncc4c(C5=CC6CCC5CN6)nn(C)c4c3F)c12` (centres unmarked) [Example 42, 4-[3-(2-azabicyclo[2.2.2]oct-5-en-5-yl)-7-fluoro-1-methyl-pyrazolo[4,3-c]pyridin-6-yl]-5-ethynyl-6-fluoro-naphthalen-2-ol] has an IC50 ([1]; Homo sapiens, THP-1, 2 h) of over 10 µM and a Kd [2] of 2.98 µM.
Compound `C#Cc1c(F)ccc2cc(O)cc(-c3ncc4c(C5CC6CCC5CN6)nn(C)c4c3F)c12` (centres unmarked) [Example 44, 4-[3-(2-azabicyclo[2.2.2]octan-5-yl)-7-fluoro-1-methyl-pyrazolo[4,3-c]pyridin-6-yl]-5-ethynyl-6-fluoro-naphthalen-2-ol] has an IC50 [1] of 6.74 µM and a Kd [2] of 0.201 µM.

Source: patent US20260022118A1, “HETEROCYCLIC COMPOUNDS AS NRAS INHIBITORS” (Board of Regents, The University of Texas System, priority 2023, published 2026)
